Columns and labels:
Npc1^−/− mice [1] = experiment: CatWalk automated gait analysis in Npc1−/− mice; format: in vivo, mouse; conditions: for ataxia (lateral displacement from a straight trajectory): 9-week-old Npc1−/− mice treated from 8 weeks of age (1 week), 0.1 g/kg/day in diet; for ataxia (lateral displacement from a straight trajectory) / duty cycle of hind paws / hind paw stand mean: vs untreated Npc1−/−; for magnitude of ataxia: Npc1−/− mice treated from weaning (3 weeks), assessed at 9 weeks (6 weeks of treatment)
Experimental: BALBc/NPC ^h and Sandhoff mice were bred as heterozygotes to generate affected mice (Npc1^−/−, Hexb^−/−) and controls (Npc^+/+, Hexb^+/+). The mice were housed under non-sterile conditions, with food and water available ad libitum. All experiments were conducted using protocols approved by the UK Home Office Animal Scientific Procedures Act, 1986.
(§1) ADLL and enantiomers (ADLL: Molekula #73891210, ALL: Sigma Aldrich #441511, ADL: Sigma #A0876) were administered as dry admix in powdered mouse diet (PicoLab Rodent Diet 20/5053, LabDiet) at a dose of 0.1 g/kg/day for in vivo studies. Treatment groups for in vivo study consisted of at least 5 mice per group. In vitro studies were conducted with each compound dissolved in PBS to generate a 50 mM stock solution and diluted to a 1 mM working concentration in media (DMEM High Glucose-Gibco #10566016).
Miglustat (Monsanto/Oxford GlycoSciences) was administered as a dry solid mixed with powdered chow (600 mg/kg/day) (see above) alone or in combination with ADLL.
The weight and activity of each mouse was recorded weekly until reaching the humane endpoint (defined as a loss of 1 g body weight within 24 h). Gait analysis was performed using CatWalk 10.5 system (Noldus) according to the manufacturer's instructions and five runs were recorded per animal at each time point. The camera was set to 40 cm below the walkway, the walkway was approximately 4 cm wide, and detection settings set to camera gain 14.05 and green intensity 0.12. Motor function was measured using an accelerating NG Rota Rod for mice (Ugo Basile) starting from 1 rpm to 10 rpm, accelerating every 30 seconds by one rpm. Bar crossing experiments on Sandhoff animals were conducted to measure motor strength and coordination. The apparatus used was modified from published studies. Briefly, a metal bar (1.2 mm width and 26 cm in length) was suspended horizontally between two wooden supports 30 cm high over a cushioned surface and animals were allowed to grasp the center of the bar with forepaws only, the tail was released, and the clock was started. Latency to cross or fall from the bar was scored, with 120 sec, maximum, to termination of each trial. A score was given to each animal between +120 and −120. If crossing time was greater than 0, then score=120−CT; if falling time was greater than 0, the score=FT−120.

Npc1^−/− mice [2] = experiment: Cerebellar immunohistochemistry (Purkinje cells, CD68 microglia) in Npc1−/− mice; format: in vivo, mouse; conditions: for Purkinje cell survival in any cerebellar lobules / reduction of frequency of CD68 positive activated microglia: compared to Npc1−/− UT; for reduction of frequency of CD68 positive activated microglia: cerebellum
Experimental: as §1
Biochemical and immunohistochemical analyses. Mice were saline perfused under terminal anaesthesia. Tissues for biochemical analysis were snap-frozen on ice-cold isopentane. For immunofluorescent staining, tissues were perfused with 4% PFA followed by PBS and kept in 4% PFA for 24h and stored in PBS containing 20% sucrose longer term. Brains were cut parasagitally (20 micron sections) and stored in 30% ethylene glycol, 30% glycerol 0.1 M sodium phosphate buffer (pH 7.4) at −20° C. Biochemical analysis was performed on water-homogenised tissues (50 mg/ml) and protein content was determined using a BCA protein assay (Thermo Fisher #23227) according to the manufacturer's instructions.
Immunohistochemistry: Free-floating brain sections in glycerol/ethylene were rinsed 3 times with PBS and blocked with 2% goat serum in 0.3% PBS Triton at room temperature. Sections were stained with primary antibodies; rabbit Calbindin (1:2000) and rat CD68 (1:500) in 2% goat serum in 0.3% PBS for 16 hours at 4° C., followed by washing with 0.3% PBS Triton, then 3 times with PBS. Secondary antibody staining (Alexa Fluor 597 Goat anti rabbit Far Red, Alexa Fluor 488 Goat anti rat) was conducted at room temperature for 2 hours. Samples were washed once with 0.3% PBS Triton, 3 times with PBS and manually mounted on slides. Slides left on the bench overnight to dry the sections followed by application of ProLong Gold (Invitrogen, #P36930).
Image Acquisition and Quantification: Brain sections and CHO cells imaging was performed with a Leica-SP8 confocal microscope in tile imaging mode. Western blot data acquisition was conducted with LiCOR Odyssey Infrared Imaging system model no 9120. Mean fluorescence values, cerebellum diameters and areas, cell quantifications were calculated with Fuji Version 1.0 software.

[3] = Npc1−/− mice treated from 3 weeks, assessed at 8 weeks
[4] = 59 days of age, relative to untreated Npc1−/− littermates

| Structure (SMILES) | ataxia (lateral displacement from a straight trajectory) (Npc1^−/− mice [1]) | motor function assessed using Catwalk (Npc1^−/− mice [1]; [3]) | magnitude of ataxia (Npc1^−/− mice [1]) | Purkinje cell survival in any cerebellar lobules (Npc1^−/− mice [2]; 59 days of age) | long term neuroprotective effects (Npc1^−/− mice [2]; Npc1−/− mice) | reduction of frequency of CD68 positive activated microglia (Npc1^−/− mice [2]; 59 days of age) | duty cycle of hind paws (Npc1^−/− mice [1]; [3]) | hind paw stand mean (Npc1^−/− mice [1]; [3]) | more Purkinje cells in lobule III (Npc1^−/− mice [2]; [4]) [%] | more Purkinje cells in lobules I and II (Npc1^−/− mice [2]; [4]) [%] |
| --- | --- | --- | --- | --- | --- | --- | --- | --- | --- | --- |
| CC(=O)N[C@H](CC(C)C)C(=O)O [ADL, N-acetyl-D-leucine] | significantly reduced ataxia | no significant benefit | significantly reduced | did not significantly improve | did not mediate any long term, neuroprotective effects | did not have a significant impact |  |  |  |  |
| CC(=O)N[C@@H](CC(C)C)C(=O)O [ALL, N-acetyl-L-leucine] | significantly reduced ataxia |  | significantly reduced | did not significantly improve |  | 20% | significantly reduced | significantly reduced |  |  |
| CC(=O)NC(CC(C)C)C(=O)O (racemic) [ADLL, N-acetyl-DL-leucine] | significantly reduced ataxia |  | significantly reduced |  |  | did not have a significant impact | significantly reduced | significantly reduced | 402 | 133 |

Source: patent US12697316B2, “Combination therapy with acetyl-leucine and miglustat” (INTRABIO LTD., priority 2019, dated 2026)
